In brackets after ≈: the same amount, converted by molar mass. Entries after “also recorded” stand apart in the source; their conditions may differ. Read-outs that look alike come from different tables or passages of the source.
Key:
[1] = system: Escherichia coli (ATCC 53323); assay: Minimum inhibitory concentration (microdilution); type: cell-based; conditions: read-out: MIC E. coli
Method: (§1) Bacteria strains Staphylococcus aureus (ATCC 33807), Bacillus cereus (ATCC 4342), Bacillus subtilis (ATCC 21332), Listeria innocua (ATCC 33090), and Escherichia coli (ATCC 53323) were provided by Ravi Kane’s lab at Rensselaer Polytechnic Institute. Mueller–Hinton broth (MHB) was used for the Staphylococcus aureus culture, while tryptic soy broth (TSB) was used for the other strains. All strains were grown to the stationary phase for 24 h at 37 °C with agitation at 220 rpm. After overnight incubation, cultures were diluted to 5 × 10^6 CFU/mL prior to use.
(§2) The minimum inhibitory concentration (MIC) was determined using the microdilution technique. Modified sophorolipid (SL) derivatives were dissolved in DMSO to make 2 M stock solutions. A dilution series was made by diluting the stock solution to a range of concentrations from 200 µM to 4 µM and a final volume of 100 μL in 10% DMSO/phosphate-buffered saline (PBS) in each well of a 96-well plate. Bacterial inocula (100 μL, 5 × 10^6 CFU/mL) were added to each well, and the final DMSO concentration was 5%. Wells containing the same volumes of DMSO/PBS buffer and culture medium, with and without bacteria, were used as positive and negative controls, respectively. Streptomycin was used for comparison. The plate was then incubated with shaking for 16–30 h at 37 °C to ensure that cultures had reached stationary phase growth and the absorbance readings were recorded at a wavelength of 600 nm using an absorbance microplate reader. Absorbance data from 16–30 h were used to calculate the percent inhibition for each test condition. MIC was recorded as the lowest concentration of drug that inhibited more than 90% of bacterial growth. All assays were carried out in triplicate.

[2] = system: Bacillus cereus (ATCC 4342); assay: Minimum inhibitory concentration (microdilution); type: cell-based; conditions: read-out: MIC B. cereus
Method: as §1, §2

[3] = system: Listeria innocua (ATCC 33090); assay: Minimum inhibitory concentration (microdilution); type: cell-based; conditions: read-out: MIC L. innocua
Method: as §1, §2

[4] = system: Staphylococcus aureus (ATCC 33807); assay: Minimum inhibitory concentration (microdilution); type: cell-based; conditions: read-out: MIC S. aureus
Method: as §1, §2

[5] = system: Bacillus subtilis (ATCC 21332); assay: Minimum inhibitory concentration (microdilution); type: cell-based; conditions: read-out: MIC B. subtilis
Method: as §1, §2

[6] = system: M1 activated macrophages (AMOs) from Raw 254.7 murine macrophages; assay: In vitro cytotoxicity study; type: cell-based; conditions: for cytotoxicity ranking: comparison within SL series
Description: A potential antimicrobial candidate must selectively kill pathogen cells without harming the host mammalian cells. To test the ability of SLs to effectively discriminate between bacteria and mammalian cells, a cytotoxicity assay was previously reported by our team. […] The therapeutic index (TI) is a parameter commonly used to determine potential drug selectivity. […] Generally, membrane-active agents are not considered for systemic administration directly, because of relatively low selectivity. Thus, designing suitable formulations and selecting suitable dose ranges are important in drug development.

B. cereus cell membrane = assay: Dye leakage / membrane depolarization assay with diS-C3(5); type: cell-based, Bacillus cereus; conditions: 40 μg/mL (58–60 μM), t = 60 min, diS-C3(5) probe; listed as LSL
Method: To probe the role of LSL and the SL-esters as membrane-active agents, dye leakage experiments were carried out. Polymyxin B, a well-known membrane-active agent, was used as a positive control. Polymyxin B is a cyclic peptide with long, hydrophobic tails that can insert into cell membranes causing cell lysis. First, time-course membrane-depolarizing studies were conducted (Figure 3A). […] Upon addition of B. cereus cells at 2 min, a rapid decay in fluorescence intensity was observed due to self-quenching caused by migration of the probe into membranes. Subsequent addition of the SL-esters at 4 min led to a sharp increase in the fluorescence signal, thus indicating enhanced permeability of the cell membrane driven by the presence of the SL derivative.
The disruption of bacterial membranes after treatment with LSL and SL-ester derivatives was tested using a fluorescence probe, diS-C3(5), which can be quenched by the electrically polarized membrane. B. Cereus grown to mid-log phase was adjusted to 2.5 × 10^6 CFU/mL in fresh MHB. […] Fluorescence data were recorded at 670 nm with excitation at 622 nm on Molecular Devices SPECTRAmax Plus 384 UV-VIS High Throughput Microplate Spectrophotometer and normalized against the negative control.

[7] = Escherichia coli, ATCC53323, incubation time 16 h, lowest concentration inhibiting more than 90% of bacterial growth
[8] = Bacillus cereus, ATCC4342, incubation time 16 h, lowest concentration inhibiting more than 90% of bacterial growth
[9] = Listeria innocua, ATCC33090, incubation time 30 h, lowest concentration inhibiting more than 90% of bacterial growth
[10] = Staphylococcus aureus, ATCC33807, incubation time 16 h, lowest concentration inhibiting more than 90% of bacterial growth
[11] = Bacillus subtilis, ATCC21332, incubation time 16 h, lowest concentration inhibiting more than 90% of bacterial growth
[12] = 16 h incubation, procedure of ref 17
[13] = incubation time 16 h, lowest concentration inhibiting more than 90% of bacterial growth
[14] = incubation time 30 h, lowest concentration inhibiting more than 90% of bacterial growth

SMILES | MIC [1, 7] | MIC [2, 8] | MIC [3, 9] | MIC [4, 10] | MIC [5, 11] | other results
CCOC(=O)CCCCCCC/C=C\CCCCCCC(C)OC1OC(CO)C(O)C(O)C1OC1OC(CO)C(O)C(O)C1O (stereo not shown) [SL-ethyl ester] | > 200 µM | 50 µM (≈ 32.5 µg/mL) | 50 µM (≈ 32.5 µg/mL) | 200 µM (≈ 130 µg/mL) | 50 µM (≈ 32.5 µg/mL) | concentration up to which low to no cytotoxicity [6, 12]: 100 to 200 µM
[H]/N=C(/N)N[C@H]1[C@H](O)[C@@H](O)[C@H](O[C@@H]2O[C@@H](C)[C@](O)(C=O)[C@H]2O[C@@H]2O[C@@H](CO)[C@H](O)[C@@H](O)[C@@H]2NC)[C@@H](N/C(N)=N\[H])[C@@H]1O [Streptomycin, reference compound] | 12 µM (≈ 6.98 µg/mL) | 12 µM (≈ 6.98 µg/mL) | 24 µM (≈ 14 µg/mL) | 3 µM (≈ 1.74 µg/mL) | 12 µM (≈ 6.98 µg/mL) | –
CC(=O)OCC1OC2OC(C)CCCCCC/C=C\CCCCCCCC(=O)OC3C(COC(C)=O)OC(OC2C(O)C1O)C(O)C3O (stereo not shown) [Lactonic SL, reference compound] | > 200 µM | 25 µM (≈ 17.2 µg/mL) | 50 µM (≈ 34.4 µg/mL) | 25 µM (≈ 17.2 µg/mL) | 12 µM (≈ 8.27 µg/mL) | MIC [1, 13]: > 200 µM; reduction in cell viability ([6]; at 50 µM, procedure of ref 17): roughly 50%; cytotoxicity ranking [6]: highest cytotoxicity; ability to enhance cell membrane permeability (endpoint fluorescence) (B. cereus cell membrane): non-significant ability to enhance cell membrane permeability; also recorded: failed to enhance membrane permeability
CCCCCOC(=O)CCCCCCC/C=C\CCCCCCC(C)OC1OC(CO)C(O)C(O)C1OC1OC(CO)C(O)C(O)C1O (stereo not shown) [SL-pentyl ester] | > 200 µM | 12 µM (≈ 8.31 µg/mL) | 12 µM (≈ 8.31 µg/mL) | > 200 µM | > 200 µM | –
CCOC(=O)CCCCCCC/C=C\CCCCCCC(C)OC1OC(CO)C(O)C(O)C1OC1OC(COC(C)=O)C(O)C(O)C1O (stereo not shown) [ESL-(6′OH, 6″Ac)] | > 200 µM | 25 µM (≈ 17.3 µg/mL) | 25 µM (≈ 17.3 µg/mL) | – | 25 µM (≈ 17.3 µg/mL) | –
COC(=O)CCCCCCC/C=C\CCCCCCC(C)OC1OC(CO)C(O)C(O)C1OC1OC(CO)C(O)C(O)C1O (stereo not shown) [SL-methyl ester] | – | – | – | – | – | MIC ([1]; Escherichia coli, ATCC53323, 16 h): > 200 µM; MIC ([2]; Bacillus cereus, ATCC4342, 16 h): 50 µM (≈ 31.8 µg/mL); MIC [2, 13]: 50 µM (≈ 31.8 µg/mL); MIC ([3]; Listeria innocua, ATCC33090, 30 h): 100 µM (≈ 63.7 µg/mL); MIC [3, 14]: 100 µM (≈ 63.7 µg/mL); MIC ([4]; Staphylococcus aureus, ATCC33807, 16 h): 200 µM (≈ 127 µg/mL); MIC [4, 13]: 200 µM (≈ 127 µg/mL); MIC ([5]; Bacillus subtilis, ATCC21332, 16 h): 50 µM (≈ 31.8 µg/mL); MIC [5, 13]: 50 µM (≈ 31.8 µg/mL); cell reduction ([6]; 400 µM, 16 h incubation, procedure of ref 17): no significant cell reduction; cytotoxicity ranking [6]: lowest toxicity
CCCOC(=O)CCCCCCC/C=C\CCCCCCC(C)OC1OC(CO)C(O)C(O)C1OC1OC(CO)C(O)C(O)C1O (stereo not shown) [SL-propyl ester] | > 200 µM | 25 µM (≈ 16.6 µg/mL) | 25 µM (≈ 16.6 µg/mL) | 100 µM (≈ 66.5 µg/mL) | 25 µM (≈ 16.6 µg/mL) | concentration up to which low to no cytotoxicity [6, 12]: 100 to 200 µM
CCCCOC(=O)CCCCCCC/C=C\CCCCCCC(C)OC1OC(CO)C(O)C(O)C1OC1OC(CO)C(O)C(O)C1O (stereo not shown) [SL-butyl ester] | > 200 µM | 12 µM (≈ 8.15 µg/mL) | 12 µM (≈ 8.15 µg/mL) | 100 µM (≈ 67.9 µg/mL) | 12 µM (≈ 8.15 µg/mL) | MIC [2, 13]: 12 µM (≈ 8.15 µg/mL); MIC [3, 14]: 12 µM (≈ 8.15 µg/mL); MIC [4, 13]: 100 µM (≈ 67.9 µg/mL); MIC [5, 13]: 12 µM (≈ 8.15 µg/mL); concentration up to which low to no cytotoxicity [6, 12]: 100 to 200 µM
CCCCCCOC(=O)CCCCCCC/C=C\CCCCCCC(C)OC1OC(CO)C(O)C(O)C1OC1OC(CO)C(O)C(O)C1O (stereo not shown) [SL-hexyl ester] | > 200 µM | > 200 µM | > 200 µM | > 200 µM | > 200 µM | MIC [2, 13]: > 200 µM; MIC [3, 14]: > 200 µM; MIC [4, 13]: > 200 µM; MIC [5, 13]: > 200 µM
CCOC(=O)CCCCCCC/C=C\CCCCCCC(C)OC1OC(COC(C)=O)C(O)C(O)C1OC1OC(CO)C(O)C(O)C1O (stereo not shown) [ESL-(6′Ac, 6″OH)] | > 200 µM | 25 µM (≈ 17.3 µg/mL) | 25 µM (≈ 17.3 µg/mL) | – | 25 µM (≈ 17.3 µg/mL) | –
CCOC(=O)CCCCCCC/C=C\CCCCCCC(C)OC1OC(COC(C)=O)C(O)C(O)C1OC1OC(COC(C)=O)C(O)C(O)C1O (stereo not shown) [ESL-(6′Ac, 6″Ac)] | > 200 µM | 12 µM (≈ 8.82 µg/mL) | > 200 µM | – | > 200 µM | –
